Measured values: patent US9902725B2, “Heterocyclic derivatives as RORgamma modulators” (GENFIT, priority 2014, dated 2018)

Assays:
[1] = target: T1, RORγt ligand-binding domain (RORγt-LBD) (Homo sapiens, UniProt P51449); assay: Time-resolved FRET (TR-FRET) RORγt coactivator assay; type: biochemical; conditions: GST-RORγ-LBD, biotinylated RIP140 peptide, coactivator displacement
T1 construct: 20 nM recombinantly expressed RORγ-LBD fused to GST
T1 sequence (P51449 269-508 limits assumed): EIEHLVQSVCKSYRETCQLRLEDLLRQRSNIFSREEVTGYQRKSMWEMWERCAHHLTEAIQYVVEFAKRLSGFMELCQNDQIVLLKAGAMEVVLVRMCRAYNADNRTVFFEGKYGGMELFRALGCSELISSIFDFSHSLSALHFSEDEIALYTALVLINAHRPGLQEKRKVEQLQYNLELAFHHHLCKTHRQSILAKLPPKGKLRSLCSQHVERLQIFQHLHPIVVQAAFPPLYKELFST

human RORγt = target: T2, human RORγt (Homo sapiens, UniProt P51449); assay: IL-17 secretion from EL4 murine lymphoma overexpressing human RORγt; type: cell-based; parameters: expressed in transfected cells; host or cells: EL-4 murine lymphoma; conditions: IL-17 secretion inhibition, PMA and ionomycin stimulation, 24 h
T2 sequence (P51449 1-497 isoform P51449-2): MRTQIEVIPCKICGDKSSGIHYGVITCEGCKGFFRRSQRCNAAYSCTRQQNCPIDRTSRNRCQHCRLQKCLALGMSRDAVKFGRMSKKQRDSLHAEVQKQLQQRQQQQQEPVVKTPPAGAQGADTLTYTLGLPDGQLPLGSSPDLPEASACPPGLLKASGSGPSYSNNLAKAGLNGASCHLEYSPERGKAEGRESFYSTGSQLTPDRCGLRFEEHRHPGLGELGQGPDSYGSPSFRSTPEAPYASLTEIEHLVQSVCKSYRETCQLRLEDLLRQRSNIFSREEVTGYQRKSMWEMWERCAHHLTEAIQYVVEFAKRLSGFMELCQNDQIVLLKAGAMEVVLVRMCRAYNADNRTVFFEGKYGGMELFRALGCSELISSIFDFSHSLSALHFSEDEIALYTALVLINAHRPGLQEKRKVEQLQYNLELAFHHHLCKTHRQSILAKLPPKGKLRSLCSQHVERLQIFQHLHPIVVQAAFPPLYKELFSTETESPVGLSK
Procedure: Murine EL-4 lymphoma cell line overexpressing human RORγt was used in this functional assay to assess compound ability to inhibit IL-17 cytokine secretion.
EL-4 cells are maintained in a standard culture medium RPMI supplemented with 10% fetal calf serum, 1% sodium pyruvate, 1% essential amino acids and 1% antibiotics at 37° C. in a humidified atmosphere of 5% CO2 and 95% air. Culture medium was changed every 2 days. EL4 cells were transfected with a plasmid encoding hRORγt (sequence identical to published sequence NM 001001523). […] Briefly, 1 μg of DNA/1 million cells was served to transfect EL-4 cells. Cell/DNA suspension was transferred into certified cuvette and the electroporation of RORγt plasmid was carried out using appropriate Nucleofector® program.
Cells were seeded in 96 well plates at a density of 150000 cells/well then treated with compounds of this invention at indicated concentrations and incubated for 24 hours at 37° C. in a humidified atmosphere of 5% CO2 and 95% air. EL-4 cells were pretreated with test compounds (RORγ modulators) and stimulated with PMA (10 ng/mL) and ionomycin (1 μM final concentration) in the presence of test compound concentrations for additional 24 h at 37° C. in a humidified atmosphere of 5% CO2 and 95% air. Subsequently, supernatants were collected (after centrifugation at 300 g for 10 minutes) to determine the concentrations of IL-17 by HTRF (CisBio, France) or ELISA (R&D Systems Europe) according to the manufacturer's protocols.

| SMILES | IC50 [1] [nM] | IC50 (human RORγt) [nM] |
| --- | --- | --- |
| Cc1ccc(C(NC(=O)Cc2ccc3[nH]cc(CCC(=O)OC(C)(C)C)c3c2)c2ccccc2)c(N2CCCCC2)c1 (centres unmarked) [Cpd. 76, tert-butyl 3-{5-[({[4-methyl-2-(piperidin-1-yl)phenyl](phenyl)methyl}carbamoyl)methyl]-1H-indol-3-yl}propanoate] | < 1000 | 1000 to 10000 |
| CC(C)(C)OC(=O)CCc1c[nH]c2ccc(CC(=O)NC(c3ccccc3)c3ccccc3N3CCCC3)cc12 (centres unmarked) [Cpd. 78, tert-butyl 3-{5-[({phenyl[2-(pyrrolidin-1-yl)phenyl]methyl}carbamoyl)methyl]-1H-indol-3-yl}propanoate] | 1000 to 10000 | 1000 to 10000 |
| COc1ccc(C(NC(=O)Cc2ccc3[nH]cc(CCC(=O)OC(C)(C)C)c3c2)c2ccccc2)c(C)c1 (centres unmarked) [Cpd. 82, tert-butyl 3-[5-({[(4-methoxy-2-methylphenyl)(phenyl)methyl]carbamoyl}methyl)-1H-indol-3-yl]propanoate] | < 1000 | 1000 to 10000 |
| COC(=O)Cc1c[nH]c2ccc(CC(=O)NC(c3ccccc3)c3ccc(Cl)cc3N3CCCC3)cc12 (centres unmarked) [Cpd. 84, methyl 2-{5-[({[4-chloro-2-(pyrrolidin-1-yl)phenyl](phenyl)methyl}carbamoyl)methyl]-1H-indol-3-yl}acetate] | < 1000 | 1000 to 10000 |
| COC(=O)Cc1c[nH]c2ccc(CC(=O)NC(c3ccccc3)c3ccc(C)cc3N3CCCCC3)cc12 (centres unmarked) [Cpd. 86, methyl 2-{5-[({[4-methyl-2-(piperidin-1-yl)phenyl](phenyl)methyl}carbamoyl)methyl]-1H-indol-3-yl}acetate] | < 1000 | < 1000 |
| COC(=O)Cc1c[nH]c2ccc(CC(=O)NC(c3ccccc3)c3ccc(C(F)(F)F)cc3N3CCCC3)cc12 (centres unmarked) [Cpd. 88, methyl 2-{5-[({phenyl[2-(pyrrolidin-1-yl)-4-(trifluoromethyl)phenyl]methyl}carbamoyl)methyl]-1H-indol-3-yl}acetate] | < 1000 | 1000 to 10000 |
| CC(C)(C)OC(=O)CCc1c[nH]c2ccc(CC(=O)NC(c3ccccc3)c3ccc(Cl)cc3N3CCCC3)cc12 (centres unmarked) [Cpd. 90, tert-butyl 3-{5-[({[4-chloro-2-(pyrrolidin-1-yl)phenyl](phenyl)methyl}carbamoyl)methyl]-1H-indol-3-yl}propanoate] | < 1000 | 10000 to 30000 |
| COC(=O)Cc1c[nH]c2ccc(CC(=O)NC(c3ccccc3)c3ccc(C)cc3N3CCOCC3)cc12 (centres unmarked) [Cpd. 96, methyl 2-{5-[({[4-methyl-2-(morpholin-4-yl)phenyl](phenyl)methyl}carbamoyl)methyl]-1H-indol-3-yl}acetate] | < 1000 | 1000 to 10000 |
| COc1cc(C)ccc1C(NC(=O)Cc1ccc2[nH]cc(CCC(=O)OC(C)(C)C)c2c1)c1ccccc1 (centres unmarked) [Cpd. 98, tert-butyl 3-[5-({[(2-methoxy-4-methylphenyl)(phenyl)methyl]carbamoyl}methyl)-1H-indol-3-yl]propanoate] | < 1000 | 1000 to 10000 |
| COc1ccc(C(NC(=O)Cc2ccc3[nH]cc(CCC(=O)OC(C)(C)C)c3c2)c2ccccc2)c(N2CCCC2)c1 (centres unmarked) [Cpd. 108, tert-butyl 3-{5-[({[4-methoxy-2-(pyrrolidin-1-yl)phenyl](phenyl)methyl}carbamoyl)methyl]-1H-indol-3-yl}propanoate] | < 1000 | < 1000 |
| COc1ccc(C(NC(=O)Cc2ccc3[nH]cc(CCC(=O)OC(C)(C)C)c3c2)c2ccccc2)c(N2CCCCC2)c1 (centres unmarked) [Cpd. 110, tert-butyl 3-{5-[({[4-methoxy-2-(piperidin-1-yl)phenyl](phenyl)methyl}carbamoyl)methyl]-1H-indol-3-yl}propanoate] | < 1000 | 1000 to 10000 |
| CCNc1cc(C)ccc1C(NC(=O)Cc1ccc2[nH]cc(CCC(=O)OC(C)(C)C)c2c1)c1ccccc1 (centres unmarked) [Cpd. 119, tert-butyl 3-{5-[({[2-(ethylamino)-4-methylphenyl](phenyl)methyl}carbamoyl)methyl]-1H-indol-3-yl}propanoate] | < 1000 | 1000 to 10000 |
| Cc1ccc(C(NC(=O)Cc2ccc3[nH]cc(CCC(=O)OC(C)(C)C)c3c2)c2ccccc2)c(NC(C)C)c1 (centres unmarked) [Cpd. 125, tert-butyl 3-(5-{[({4-methyl-2-[(propan-2-yl)amino]phenyl}(phenyl)methyl)carbamoyl]methyl}-1H-indol-3-yl)propanoate] | < 1000 | 1000 to 10000 |
| COc1ccc(C(NC(=O)Cc2ccc3[nH]cc(CCC(=O)OC(C)(C)C)c3c2)c2ccccc2)c(N2CCCCCC2)c1 (centres unmarked) [Cpd. 141, tert-butyl 3-{5-[({[2-(azepan-1-yl)-4-methoxyphenyl](phenyl)methyl}carbamoyl)methyl]-1H-indol-3-yl}propanoate] | < 1000 | 1000 to 10000 |
| Cc1ccc(C(NC(=O)Cc2ccc3[nH]cc(CCC(=O)OC(C)(C)C)c3c2)c2ccccc2)c(OC(C)C)c1 (centres unmarked) [Cpd. 145, tert-butyl 3-{5-[({[4-methyl-2-(propan-2-yloxy)phenyl](phenyl)methyl}carbamoyl)methyl]-1H-indol-3-yl}propanoate] | < 1000 | 1000 to 10000 |
| CCOC(=O)CCc1n[nH]c2ccc(CC(=O)NC(c3ccccc3)c3ccc(C)cc3OC(C)C)cc12 (centres unmarked) [Cpd. 159, ethyl 3-{5-[({[4-methyl-2-(propan-2-yloxy)phenyl](phenyl)methyl}carbamoyl)methyl]-1H-indazol-3-yl}propanoate] | < 1000 | 1000 to 10000 |
| CCOC(=O)CCCc1c[nH]c2ccc(CC(=O)NC(c3ccccc3)c3ccccc3N3CCCCC3)cc12 (centres unmarked) [Cpd. 211, ethyl 4-{5-[({phenyl[2-(piperidin-1-yl)phenyl]methyl}carbamoyl)methyl]-1H-indol-3-yl}butanoate] | < 1000 | 1000 to 10000 |
| CCOC(=O)CCCCc1c[nH]c2ccc(CC(=O)NC(c3ccccc3)c3ccccc3N3CCCCC3)cc12 (centres unmarked) [Cpd. 216, ethyl 5-{5-[({phenyl[2-(piperidin-1-yl)phenyl]methyl}carbamoyl)methyl]-1H-indol-3-yl}pentanoate] | < 1000 | 1000 to 10000 |
| CC(C)(C)OC(=O)CCc1c[nH]c2ccc(NC(=O)NC(c3ccccc3)c3ccccc3N3CCCCC3)cc12 (centres unmarked) [compound 55, tert-butyl 3-{5-[({phenyl[2-(piperidin-1-yl)phenyl]methyl}carbamoyl)amino]-1H-indol-3-yl}propanoate] | 10000 to 30000 | 1000 to 10000 |
| O=C(O)CCc1c[nH]c2ccc(CC(=O)NC(c3ccccc3)c3cc(Cl)ccc3N3CCCCC3)cc12 (centres unmarked) [compound 62, 3-{5-[({[5-chloro-2-(piperidin-1-yl)phenyl](phenyl)methyl}carbamoyl)methyl]-1H-indol-3-yl}propanoic acid] | < 1000 | 1000 to 10000 |
| Cc1ccc(C(NC(=O)Cc2ccc3[nH]cc(CC(=O)O)c3c2)c2ccccc2)c(N2CCCC2)c1 (centres unmarked) [compound 65, 2-{5-[({[4-methyl-2-(pyrrolidin-1-yl)phenyl](phenyl)methyl}carbamoyl)methyl]-1H-indol-3-yl}acetic acid] | < 1000 | 1000 to 10000 |
| Cc1ccc(C(NC(=O)Cc2ccc3[nH]cc(CC(=O)O)c3c2)c2ccccc2)c(N2CCCCC2)c1 (centres unmarked) [compound 87, 2-{5-[({[4-methyl-2-(piperidin-1-yl)phenyl](phenyl)methyl}carbamoyl)methyl]-1H-indol-3-yl}acetic acid] | < 1000 | 1000 to 10000 |
